# Results as given in patent US8648050B2 (University of Mississippi, priority 2011, dated 2014).
# “Also recorded” adds a separate entry of the source. Like-named read-outs stand apart in the source and are kept apart here.
# What was measured:
# [1] = In vivo renal & hemodynamic assessment; set-up: species or system Sprague-Dawley rats
# Description: In vivo renal & hemodynamic Assessment: Sprague-Dawley (Harlan Sprague Dawley) rats (224-249 g) were housed in a temperature-controlled room on a 12:12-h light-dark cycle and fed standard chow (Harlan Teklad; Madison, Wis.) and water ad libitum for a period of at least 1 week before surgical procedures and experimental treatment. All procedures and experimental designs were in accordance with the guidelines of the American Association for Accreditation of Laboratory Animal Care (AAALAC) and approved by the University of Mississippi Medical Center's Institutional Animal Care and Use Committee. Animals were anesthetized using isoflurane delivered by an anesthesia machine (Vaporizer for Forane Anesthetic: Ohio Medical Products, Madison, Wis.). A midline lower abdominal incision was made, and the bladder was cannulated with flare-tipped PE-90 tubing for urine collection. Catheters of heat-stretched PE-50 tubing were inserted into the left femoral artery and right femoral vein for blood sampling and blood pressure monitoring. After implantation, each catheter was filled with a 50:50 solution of heparin and saline and exteriorized at the back of the neck. All animals were instrumented with a specially made Silastic catheter and steel bladder as described by Gellai and Valtin for renal clearance measurements (5). On complete instrumentation, all animals were allowed to recover for a period of 4 days.
# Doses studied for assessment of renal toxicity range started at 1 mg/kg as a single dose infused at 0.015 mL/min over 1 hour. Incremental increases in dose were performed until 2 mg/kg was achieved. That dose was deemed to be nephrotoxic on the basis of a 16% reduction in mean glomerular filtration rate (GFR). […] In experimental studies, animals were treated with saline for up to 1 day and then placed in modified restraining cages for renal function measurements. Each animal served as their own control, prior to receiving AmB formulations. […] The femoral vein catheter was then connected to an infusion pump. Isotonic saline containing sodium [^125I]iothalamate and para-aminohippurate (PAH) was infused intravenously at a fixed rate of 3 mL/h After a 60-minute stabilization period, two 20-minute urine collections were obtained, followed by collection of blood samples. Urine volume was determined gravimetrically. Sodium and potassium concentrations in plasma and urine were measured by flame photometry. Glomerular filtration rate and effective renal plasma flow were calculated from the radioactivity of ^125I and concentration of PAH, respectively, in plasma and urine. PAH concentration was determined colorimetrically. Arterial pressure was monitored in conscious animals with a pressure transducer connected to a Grass model 7B chart recorder for continuous recording. […]
# C. albicans ATCC 44858 = assay: Murine Candida albicans systemic infection model (survival, tissue burden); format: in vivo, Balb/c mice
# Procedure: Survival in an Infection Model: Evaluation of efficacy was performed in a murine Candida albicans systemic infection model. For each experiment, an isolate of C. albicans ATCC 44858 was thawed and then incubated overnight on Sabouraud dextrose agar (Unipath Limited). One colony was transferred into 25 mL of Sabouraud dextrose broth (Unipath Limited). The broth was incubated on an orbital mixer for 8 hours at 37° C., centrifuged to pellet the organisms, and then washed and resuspended in saline. Density was adjusted using optical density at 490 nm. Initial studies were performed in which 0.15-0.2 mL saline containing this Candida strain over a range of densities was injected intravenously to determine the optimum inoculum. The 90% lethal dose (LD90) was defined as the inoculum of the organism that caused 90% mortality 10 days post-infection. The inocula for the all isolates are estimated at 3-5×10^8 CFU/mL. These inocula were used in this study.
# Specific-pathogen-free Balb/c mice (age 12-20 weeks) were obtained from IFFA Credo (L'Arbresle, France). Female mice were infected with 0.15-0.2 mL of C. albicans inoculum (4×10^8 CFU/mL) by injection into the lateral tail vein and then returned to their home cages. Post-infection viability counts were performed to ensure the correct inoculum had been given. […] At time of death or animal sacrifice, vital organs (liver, spleen, heart, bladder, muscle) were isolated and transferred into 2 mL cold sterile phosphate-buffered saline. Samples were frozen at −80° C. until analysis. At batch processing time, each sample was thawed and weighed. The organs were divided into 2 batches. Organs in one batch were homogenized in a tissue grinder for 14-30 seconds and then diluted 1:10, 1:100, and 1:1000. A 100 μL aliquot of each sample was plated on Sabourauds dextrous agar and incubated at 37° in a humidified incubator. Plates were examined daily for 7 days, and colony counts were recorded from all plates each day. The second batch of organ tissue was evaluated microscopically. Leukopenia was not induced by intraperitoneal administration of cyclophosphamide at 100 mg/kg 4 days before C. albicans inoculation due to the overall success of the model and the desire to maintain competency of the immune system.
# Statistical Analysis: Animal survival between treated and untreated infected animals was selected as the primary outcome measure.
# [2] = Stability of AmBHP to pH and temperature during work up; format: physicochemical
# Description: As a point in fact, AmBHP can be obtained with elution in ethanol containing 1% 1 N HCL (0.01 N HCl in water has a pH ˜2) if the pH during post-column work up is maintained between 5-7. Nor is the apparent purity of AmBHP adversely affected by a short exposure to pH ˜11, as occurs during solubilization with deoxycholate. However, at both extremes, AmBHP may degrade during evaporation of solvent under air/nitrogen or during lyophilization. […] During evaporation of solvent, the temperature of the heating block remained at about 40° C. or less. The presence of DMSO or DMF during drying/lyophilization or prolonged storage (even at −20° C.) may result in degradation.
# [3] = tested on: IL-1β expression by THP-1 cells; assay: In vitro infusion related reaction assay (IL-1β release, ELISA); settings: FIG. 3 or 9
# Procedure: Cells are then incubated for about 2 hours. Supernatants are collected from each well after three freeze-thaws and stored at about −70° C. until assay. Samples are assayed for IL-1β using an enzyme-linked immunosorbent assay (Cistron Biotechnology; Pine Brook, N.J.) (ELISA). The procedure involves a four-step test carried out in microtiter wells which are coated with IL-1β specific monoclonal antibody. […] There is no cross-reactivity for IL-1α, IL-2, TNF-α or interferon. […] Data are the mean of duplicate assays and are expressed in pg/mL on the basis of standards supplied by the manufacturer.
# Supernatants were collected from each well after three freeze-thaws cycles and stored at −80° C. until assayed. Samples were assayed for interleukin-1β (IL-1β) using an enzyme-linked immunosorbent assay (Cistron Biotechnology; Pine Brook, N.J.).
# Candida albicans = assay: Antifungal susceptibility testing of HPLC fractions, NCCLS broth microdilution (Example 1); format: cell-based
# Procedure: Test Isolates: One Candida albicans isolate, American Type Culture Collection (ATCC) strain 90028, is selected.
# Antifungal Susceptibility Testing: Sample MIC's are determined by broth microdilution according to NCCLS guidelines. Isolates are subcultured twice on potato dextrose agar (PDA) plates (Remei, Lenexa, Kans., USA). Fungal suspensions are prepared by transferring four to five colonies into about 5 mL of sterile about 0.9% saline. […] 100 uL of inoculum is added to each well of a microtiter tray containing 100 uL of serially diluted drug in RPMI solution. Sample concentrations of about 0.0039, about 0.0078, about 0.0156, about 0.0312, about 0.0624, about 0.125, about 0.25, about 0.5, about 1, about 2, and about 4 ug/mL are achieved. The trays are incubated in a humid, dark chamber for about 48 hours at about 35° C. […] MIC determinations are performed a minimum of two times with an additional run if the quantity of sample drug allowed for it. It is decided to determine the MFC on samples which achieved definitive MICs. After the MIC is read at 48-h, a 1 uL sample is withdrawn from each microtiter tray with a 96 pin replicator (Boekel, Feasterville, Pa.) and plated onto an RPMI agar plate. Samples are incubated in a humid, dark chamber for about 48 hours at about 35° C. MFC is determined by the complete lack of organism growth on the plate and recorded as the corresponding well in the MIC tray.
# [4] = published, cited from earlier work
# in vivo = settings: Balb/c, mouse
structure (smiles),measurement,setting,value
"CC1/C=C/C=C/C=C/C=C/C=C/C=C/C=C/C(OC2OC(C)C(O)C(N)C2O)CC2OC(O)(CC(O)CC(O)C(O)CCC(O)CC(O)CC(=O)OC(C)C(C)C1O)CC(O)C2C(=O)O (stereo not drawn) [AmBHP, Amphotericin B Highly Purified]",other indices of cardio-renal function,[1]; doses 10-fold outside the range of toxicity for AmB,not adversely affected
same,mean GFR,"[1]; rats, 20 mg/kg over one hour",2.03 mL/min
same,"renal function (GFR), decrease as percent control","[1]; rats, 20 mg/kg over one hour",7.9%
same,mortality in infected mice,"C. albicans ATCC 44858; 0.5 mg/kg, 5 days post infection",20%
same,activity against fungi in blood,C. albicans ATCC 44858; blood,as effective against blood-borne fungi as was Pharma-Tek AmB
same,colony counts from lungs and livers,C. albicans ATCC 44858; compared to AmB,lower colony counts
same,"C. albicans tissue burden, efficacy","C. albicans ATCC 44858; post-mortem liver, spleen, heart, kidney, lung and blood",comparable to those of Pharma-Tek® AmB and AmBLC
same,stability on exposure to variations in pH,"[2]; pH between ˜2 and ˜11, short-term",does not appear to adversely affect AmB
same,stability to temperature,[2]; post-column work up,may degrade at high temperature
same,toxicity by ability of THP-1 cells to exclude trypan blue,THP-1 cells,less disruptive to the cell membrane than is commercial deoxycholate-formulated AmB
same,"general toxicity in vivo (apparent LD50 and survival of Candida-infected mice), less than generic or lipid-complexed AmB",,roughly 2 fold
same,"cytokine (IL-1β) response, comparison in words",[3],Less cytokine is expressed; also recorded: less of a cytokine response than did AmB; also recorded: failed to further increase cytokine release at concentrations as high as 21.6 μM
"CC1/C=C/C=C/C=C/C=C/C=C/C=C/C=C/C(OC2OC(C)C(O)C(N)C2O)CC2OC(O)(CC(O)CC(O)C(O)CCC(O)CC(O)CC(=O)OC(C)C(C)C1O)CC(O)C2C(=O)O (stereo not drawn) [AmB, Amphotericin B]",MIC,"Candida albicans; 100% inhibition vs control, 48 hours at 35° C., Candida albicans B311 (footnote 1), read-out: Median MIC100",0.25 µg/mL
same,MIC80,"Candida albicans; Candida albicans, 48 h, read-out: Median MIC80",0.1 µg/mL
same,MFC,"Candida albicans; Candida albicans, ATCC90028, fungicidal to all cells, no growth on agar plates, footnotes 1,2: C. albicans B311, ATCC 90028",0.625 µg/mL
same,mean GFR,"[1]; rats, 2 mg/kg over one hour",1.92 mL/min
same,"LD50, average parenteral dose","[4]; OF-1, CD-1 and Balb/c mice",2.78 mg/kg
same,"LD50, range","[4]; OF-1, CD-1 and Balb/c mice",2.3 to 3.46 mg/kg
same,LD50,[4]; fasting mice,1.51 mg/kg
same,LD50,[4]; fed animals,2.38 mg/kg
same,LD50,in vivo,~2.5 mg/kg
